Assays:
Type in all cases: functional, cell-based
BaF3 [1] = experiment: Antiproliferative activity against PIM1-dependent mouse BAF3 cells
[2] = Antiproliferative activity against human MM1S cells; conditions: MM1.S
BaF3 [3] = experiment: Antiproliferative activity against IL3-dependent mouse BAF3 cells

Row | Compound | IC50 (BaF3 [1]) [nM] | EC50 [2] [µM] | IC50 (BaF3 [3]) [µM]
1 | Cn1ncc(NC(=O)c2csc(-c3c(F)cc([C@H]4CCCO4)cc3F)n2)c1[C@@H]1CC[C@@H](N)[C@H](F)CO1 (single isomer, unassigned) | 37.2 | 1.7 | 12.2
2 | Cn1ncc(NC(=O)c2nc(-c3c(F)cccc3F)sc2N)c1[C@]12CC[C@H](O1)[C@@H](N)CC2 | 19.2 |  | 
3 | C[C@H]1O[C@@H](c2c(NC(=O)c3csc(-c4c(F)cccc4F)n3)cnn2C)C[C@@H](N)[C@]1(C)O (single isomer, unassigned) | 96.8 | 6.9 | > 25

Reference: ChEMBL document CHEMBL3351623, “Pim kinase inhibitors for the treatment of cancer and possibly more” (ACS Med Chem Lett, 2014)
